Data from PubChem BioAssay (NCI).
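Briefly, cells in 96-well plates were exposed to five compound concentrations for 48 h, and endpoints were estimated by linear interpolation. TGI marks complete inhibition of growth.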

Columns and labels:
Assay in all cases: NCI anticancer screen, dose series, 48 h
[1] = test system: NCI-H522 lung
[2] = test system: SF-295 CNS
[3] = test system: HL-60(TB) leukemia
[4] = test system: NCI/ADR-RES ovarian
[5] = test system: HOP-62 NSCLC
[6] = test system: NCI-H23 lung
[7] = test system: SF-539 CNS
[8] = test system: M14 melanoma
[9] = test system: OVCAR-8 ovarian
[10] = test system: MDA-MB-435
[11] = test system: SN12C renal
[12] = test system: SR leukemia
[13] = test system: HOP-92 NSCLC
[14] = test system: MALME-3M melanoma
[15] = test system: T-47D breast
[16] = test system: MDA-N
[17] = test system: HCT-15 colon
[18] = test system: UACC-257 melanoma
[19] = test system: ACHN renal
[20] = test system: MDA-MB-231 breast
[21] = test system: 786-0 renal
[22] = test system: RXF 393 renal
[23] = test system: SK-MEL-2 melanoma
[24] = test system: KM12 colon
[25] = test system: A549 NSCLC
[26] = test system: SNB-19 CNS
[27] = test system: U251 CNS
[28] = test system: DU-145 prostate
[29] = test system: RPMI-8226 leukemia
[30] = test system: EKVX NSCLC
[31] = test system: OVCAR-3 ovarian
[32] = test system: HT29 colon
[33] = test system: OVCAR-5 ovarian
[34] = test system: K-562 leukemia
[35] = test system: SK-MEL-28 melanoma
[36] = test system: MCF7 breast
[37] = test system: SNB-75 CNS
[38] = test system: NCI-H460 lung
[39] = test system: CAKI-1 renal
[40] = test system: BT-549 breast
[41] = test system: HCT-116 colon
[42] = test system: IGROV1 ovarian
[43] = test system: SK-OV-3 ovarian
[44] = test system: TK-10 renal
[45] = test system: COLO 205 colon
[46] = test system: CCRF-CEM leukemia
[47] = test system: MOLT-4 leukemia
[48] = test system: UACC-62 melanoma
[49] = test system: A498 renal
[50] = test system: SF-268 CNS
[51] = test system: SW-620 colon
[52] = test system: HS 578T breast
[53] = test system: PC-3 prostate
[54] = test system: SK-MEL-5 melanoma
[55] = test system: NCI-H226 lung
[56] = test system: LOX IMVI melanoma
[57] = test system: OVCAR-4 ovarian
[58] = test system: UO-31 renal

Measured: TGI

NC1(P(=O)(O)O)CCCCC1
> 100 µM: [1] | [2] | [3] | [4] | [5] | [6] | [7] | [8] | [9] | [10] | [11] | [12] | [13] | [14] | [15] | [16] | [17] | [18] | [19] | [20] | [21] | [22] | [23] | [24] | [25] | [26] | [27] | [28] | [29] | [30] | [31] | [32] | [33] | [34] | [35] | [36] | [37] | [38] | [39] | [40] | [41] | [42] | [43] | [44] | [45] | [46] | [47] | [48] | [49] | [50] | [51] | [52] | [53] | [54] | [55] | [56] | [57]

CN(C)CCNS(=O)(=O)N(C)C
> 100 µM: [1] | [2] | [3] | [4] | [5] | [6] | [7] | [8] | [9] | [10] | [11] | [12] | [13] | [14] | [15] | [16] | [17] | [18] | [19] | [20] | [21] | [22] | [23] | [24] | [25] | [26] | [27] | [28] | [29] | [30] | [31] | [32] | [33] | [34] | [35] | [36] | [37] | [38] | [39] | [40] | [41] | [42] | [43] | [44] | [45] | [46] | [47] | [48] | [49] | [50] | [51] | [52] | [53] | [54] | [55] | [56] | [57]

CC(C)NC1(C(N)=O)CCN(Cc2ccccc2)CC1
> 100 µM: [1] | [2] | [3] | [4] | [5] | [58] | [6] | [7] | [8] | [9] | [10] | [11] | [12] | [13] | [14] | [15] | [16] | [17] | [18] | [19] | [20] | [21] | [22] | [23] | [24] | [25] | [26] | [27] | [28] | [29] | [30] | [31] | [32] | [33] | [34] | [35] | [36] | [37] | [38] | [39] | [40] | [41] | [42] | [43] | [44] | [45] | [47] | [48] | [49] | [50] | [51] | [52] | [53] | [54] | [55] | [56] | [57]
